We go through eight compounds from patent US6162826A, “Genipin derivative having anti hepatitis B virus activity” (priority 1996, dated 2000).

Like-named read-outs stand apart in the source and are kept apart here.

Data set [1] deals with HBV replication. In words: Inhibitory effect on HBV replication in 2.2.15 cell culture. The format is cell-based, hepatitis B virus. The note with it: for EC50: Hepatitis B virus, 216 h, read-out: ED50 (inhibitory effect on HBV replication); for SI (Selectivity Index, IC50/ED50): cytotoxicity IC50 / HBV ED50, 2.2.15 cell culture. From the text:
Inhibitory effect on HBV replication was examined by the use of 2.2.15. cell. 2.2.15. cell line (see, Sells et al., Journal of Virology, 62, 2836-2844, 1988) is a hepatoma cell infected by hepatitis B virus and is a representative standard cell which accurately standardizes all the essential viral characteristics induced by a chronic HBV infection. That is, 2.2.15. cell has some merits such that DNA pattern is stable, replicated virus exists in high level, virus-specific RNA replicate and protein are present in an appropriate size and pattern, the penetrated HBV virion is excreted in high titer, etc. Therefore, it has been recognized as a very suitable cell line which can be used when the anti viral activity of any compound on HBV is evaluated (see, Korba and Milman, Antiviral Research, 15, p217-228, 1991).
First, the present inventors cultured 2.2.15. cell and treated the cell with the novel compound according to the present invention. Then, extraction of DNA and RNA, gel electrophoresis, and hybridization analysis of HBV DNA were carried out to identify the inhibitory activity of the compound of the present invention on HBV replication. Herein, untreated cell was used as a control and ddC (dideoxy cytidine) widely known as a therapeutic agent for hepatitis was used as a comparative compound. As a result, it could be seen that the genipin derivative according to the present invention has an excellent inhibitory effect on replication like the known ddC.
Test for identifying the anti HBV effect of the compound of the present invention was carried out according to a known assay method (see, Korba and Milman, Antiviral Res., 15, 217, 1991). The assay procedure is briefly described in the following.
2.2.15. cell was cultured and preserved in RPM 11640 culture medium containing 5% fetal bovine serum(FBS), 2 mM glutamine and 50 μg/ml gentamicin sulfate. Resistance to G418 of the cell culture and degree of Mycoplasma contamination were examined according to conventional methods.
Cells (1×10^4 /cm^2) were inoculated into a multi-well tissue culture plate, confluently cultured for 7 days, and then kept for 2 or 3 days in confluent condition to stabilize the HBV DNA level. Then, culture medium was replaced 24 hours before cells were exposed to test compound. During the treatment of 9 days, culture medium was replaced and then test compound was added to the fresh culture medium at intervals of 24 hours. Culture medium was collected immediately before the first introduction of test compound, and after 3, 6, 9 days, respectively, and stored at -70° C. before HBV DNA analysis. Then, cytolysis was carried out to analyze the intracellular HBV DNA.
To analyze the extracellular HBV DNA, 0.2 ml of culture medium was incubated in 1M NaOH/10×SSC (1×SSC=0.15M NaCl/0.015M sodium citrate, pH 7.2) for 20 minutes at 25° C. and then immediately applied to a nitrocellulose membrane presoaked in 20×SSC using a slot blot apparatus. The sample was washed twice with 0.5 ml of 1M Tris/2M NaCl (pH 7.2) and once with 0.5 ml of 20×SSC to neutralize, and then it was washed again with 2×SSC and heated at 80° C. for one hour under vacuum. Generally, the cells which have been cultured and preserved in a dish having a diameter of 10 cm are dissolved in 6 ml of lysis buffer, and the […] is prepared according to the method of Korba et al., 1991.
10 μg/lane of cellular DNA sample was digested with restriction enzyme Hind III. Then, the digested sample was applied to 1% agarose gel electrophoresis and transferred to a nitrocellulose membrane.
3.2 kb HBV DNA fragment obtained by EcoR 1-digestion and purification was labeled with [^32 P]dCTP using nick translation method. This labeled fragment was used as a hybridization probe. Conditions for hybridization and post-washing were controlled by referring to the method of Korba et al., 1991 and HBV nucleic acid content among test sample was determined by Ambis beta scanner. […]

Data set [2] can be described thus: Cytotoxicity test (neutral red dye uptake). The format is cell-based. The note with it: human, 2.2.15 cells, A510, 2.2.15 cell, cells treated as in Biological Example 1, read-out: IC50 (cytotoxicity). As to the method:
Further, the present inventors have performed cytotoxicity test using the neutral red dye uptake method to determine that the anti viral effect of the compound of formula (I) […] its general influence on cell growth. As a result, it was identified that the toxicity of the compound of formula (I) is much less than that of ddC.
Cytotoxicity test was carried out in order to determine whether the anti viral effect of the compound according to the present invention is due to the general influence on cell growth or not. In the present experiment, neutral red dye uptake method was used. This is a standard method widely utilized for examining cell survival, by which the variety of relations between viruses such as HSV or HIV and host organism can be understood.
Cytotoxicity test was performed on a 96-well tissue culture plate. Cells were cultured and treated with test compounds in the same manner as Biological Example 1, and the experiments at 4-kind concentrations were repeated threetimes, respectively. Since the relative toxicity can be determined from the uptake level of neutral red dye, quantitative analysis was carried out using the absorbance of internalized dye at 510 nm (A510).
Inhibitory effect of the compound of formula (I) on HBV replication in 2.2.15 cell culture, cytotoxicity, and SI (Selectivity Index, IC50 /ED50)

For data set [3], the system named is HBV replication. The note with it: therapeutic agent for hepatitis B; cited from earlier work.
For data set [4] the following is noted: cited from earlier work.
Setting [5] is: 2.2.15 cell culture, treatment of 9 days.

Consider `CO[C@@H]1OC=C(C=O)[C@H]2CC=C(C=O)[C@@H]12` [Compound 1, (1R,4aS,7aS)-4,7-diformyl-1-metboxy-1,4a,5,7a-tetrahydrocyclopenta-[c]pyran], for which the EC50 in the data set with HBV replication [1] (setting [5]) was over 500 µM. In addition, the CC50 in data set [2] came out at 120 µM.
For the compound `COc1ccc(COCC2=CO[C@@H](OC)[C@@H]3C(C=NO)=CC[C@H]23)cc1` [Compound 2, (1R,4aS,7aS)-7-hydroxyiminomethyl-1-methoxy-4-(p-methoxybenzyloxymethyl)-1,4a,5,7a-tetrahydrocyclopenta[c]pyran], the EC50 with HBV replication [1] (setting [5]) was 30 µM. Moreover, in the data set with HBV replication [1], the “SI (Selectivity Index, IC50/ED50)” value is given as 3.0. Further, the CC50 in data set [2] came out at 90 µM.
In the case of `COC(=O)C1=CO[C@@H](OC(=O)c2ccncc2)[C@@H]2C(COC(=O)c3ccncc3)=CC[C@H]12` [Compound 11, Methyl (1S,4aS,7aS)-1-isonicotinoyloxy-7-isonicotinoyloxymethyl-1,4a,5,7a-tetrahydrocyclopenta[c]pyran4-carboxylate], the EC50 with HBV replication [1] (setting [5]) is 30 µM. In addition, in the data set with HBV replication [1], the “SI (Selectivity Index, IC50/ED50)” value is reported as over 6.7. The CC50 in data set [2] is over 200 µM.
The matching figures for `COC(=O)C1=CO[C@@H](OCc2ccccc2)[C@@H]2C(C=O)=CC[C@H]12` [Compound 13, Methyl (1R,4aS,7aS)-1-benzyloxy-7-formyl-1,4a,5,7a-tetrahydrocyclopenta[c]pyran-4-carboxylate]: 20 µM, 2.5 and 50 µM.
Turning to `COC(=O)C1=CO[C@@H](OCc2ccccc2)[C@@H]2C(C=NO)=CC[C@H]12` [Compound 14, Methyl (1R,4aS,7aS)-1-benzyloxy-7-hydroxyiminomethyl-1,4a,5,7a-tetrahydrocyclopenta[c]pyran-4-carboxylate], in the data set with HBV replication [1] (setting [5]), the EC50 amounted to 15 µM. Also, the “SI (Selectivity Index, IC50/ED50)” value with HBV replication [1] worked out at 8.7. Further, the CC50 in data set [2] turned out to be 130 µM.
In the case of `OCC1=C[C@@H](O)[C@@H]2C=CO[C@@H](O[C@@H]3O[C@H](CO)[C@@H](O)[C@H](O)[C@H]3O)[C@H]12` [aucubin], the “inhibition of HBV replication (in words)” value in the data set on HBV replication [3] is “inhibit the HBV replication”. Further, in data set [4], the “in vivo activities (in words)” value was “liver-protection, inhibition of biosynthesis of RNA and protein, detoxification as well as antiviral activity”.
`Nc1ccn([C@H]2CC[C@@H](CO)O2)c(=O)n1` [ddC, dideoxy cytidine, reference compound]: in the data set with HBV replication [1], the EC50 came to 15 µM and the “SI (Selectivity Index, IC50/ED50)” value was over 2.0. Also, the CC50 in data set [2] is over 30 µM.
With `COC(=O)C1=CO[C@@H](O)[C@@H]2C(CO)=CC[C@H]12` [genipin], in the data set with HBV replication [3], the “inhibition of HBV replication (in words)” value is on record as “inhibit the HBV replication”. The “in vivo activities (in words)” value in data set [4] is “liver-protection, inhibition of biosynthesis of RNA and protein, detoxification as well as antiviral activity”.
